{"source": "patent US20050229276A1", "about": "“Method of producing cyclamen root tuber and method of proliferating cyclamen using the same” (Tokyo University of Agricultural, priority 2002, published 2005)", "key": {"[1]": {"tested_on": "explants from leaves of cyclamen (species: Flamenco)", "assay": "Culture of explants from leaves (comparative)", "assay_type": "cell-based", "settings": "NAA 0.05 mg/l, 20 explants planted, 30 days", "method": "(§1) For comparison, the explants from leaves and petioles of cyclamen (species: Flamenco) were cultured for 30 days by changing the contents of BA and sucrose in a basal medium prepared by adding 0.05 mg/l of NAA and 6 g/l of agar to the ⅓ MS medium and having a pH of 7.0. In all the cases, the root tubers were hardly enlarged by culture and rarely regenerated and accordingly, a clonal plant could not be obtained with high reproducibility."}, "[2]": {"tested_on": "explants from petioles of cyclamen (species: Flamenco)", "assay": "Culture of explants from petioles (comparative)", "assay_type": "cell-based", "settings": "NAA 0.05 mg/l, 20 explants planted, 30 days", "method": "as §1"}}}
{"smiles": "c1ccc(CNc2ncnc3[nH]cnc23)cc1", "note": "[BA, benzylaminopurine]", "values": [{"measurement": "Number of enlarged explants", "setting": "[1]; BA 0.05 mg/l", "result": 0}, {"measurement": "Number of regenerate explants", "setting": "[1]; BA 0.05 mg/l", "result": 0}, {"measurement": "Number of enlarged explants", "setting": "[1]; BA 0.05 mg/l, sucrose 30 g/m", "result": 1}, {"measurement": "Number of regenerate explants", "setting": "[1]; BA 0.05 mg/l, sucrose 30 g/m", "result": 0}, {"measurement": "Number of enlarged explants", "setting": "[1]; BA 0.05 mg/l, sucrose 70 g/m", "result": 0}, {"measurement": "Number of regenerate explants", "setting": "[1]; BA 0.05 mg/l, sucrose 70 g/m", "result": 0}, {"measurement": "Number of enlarged explants", "setting": "[1]; BA 0.05 mg/l, sucrose 90 g/m", "result": 0}, {"measurement": "Number of regenerate explants", "setting": "[1]; BA 0.05 mg/l, sucrose 90 g/m", "result": 0}, {"measurement": "Number of enlarged explants", "setting": "[1]; BA 0.1 mg/l", "result": 1}, {"measurement": "Number of regenerate explants", "setting": "[1]; BA 0.1 mg/l", "result": 0}, {"measurement": "Number of enlarged explants", "setting": "[1]; BA 0.1 mg/l, sucrose 30 g/m", "result": 2}, {"measurement": "Number of regenerate explants", "setting": "[1]; BA 0.1 mg/l, sucrose 30 g/m", "result": 1}, {"measurement": "Number of enlarged explants", "setting": "[1]; BA 0.1 mg/l, sucrose 70 g/m", "result": 0}, {"measurement": "Number of regenerate explants", "setting": "[1]; BA 0.1 mg/l, sucrose 70 g/m", "result": 0}, {"measurement": "Number of enlarged explants", "setting": "[1]; BA 0.1 mg/l, sucrose 90 g/m", "result": 0}, {"measurement": "Number of regenerate explants", "setting": "[1]; BA 0.1 mg/l, sucrose 90 g/m", "result": 0}, {"measurement": "Number of enlarged explants", "setting": "[1]; BA 0.5 mg/l", "result": 4}, {"measurement": "Number of regenerate explants", "setting": "[1]; BA 0.5 mg/l", "result": 1}, {"measurement": "Number of enlarged explants", "setting": "[1]; BA 0.5 mg/l, sucrose 30 g/m", "result": 2}, {"measurement": "Number of regenerate explants", "setting": "[1]; BA 0.5 mg/l, sucrose 30 g/m", "result": 2}, {"measurement": "Number of enlarged explants", "setting": "[1]; BA 0.5 mg/l, sucrose 70 g/m", "result": 1}, {"measurement": "Number of regenerate explants", "setting": "[1]; BA 0.5 mg/l, sucrose 70 g/m", "result": 0}, {"measurement": "Number of enlarged explants", "setting": "[1]; BA 0.5 mg/l, sucrose 90 g/m", "result": 2}, {"measurement": "Number of regenerate explants", "setting": "[1]; BA 0.5 mg/l, sucrose 90 g/m", "result": 0}, {"measurement": "Number of enlarged explants", "setting": "[1]; BA 1 mg/l", "result": 4}, {"measurement": "Number of regenerate explants", "setting": "[1]; BA 1 mg/l", "result": 2}, {"measurement": "Number of enlarged explants", "setting": "[1]; BA 1 mg/l, sucrose 30 g/m", "result": 6}, {"measurement": "Number of regenerate explants", "setting": "[1]; BA 1 mg/l, sucrose 30 g/m", "result": 3}, {"measurement": "Number of enlarged explants", "setting": "[1]; BA 1 mg/l, sucrose 70 g/m", "result": 3}, {"measurement": "Number of regenerate explants", "setting": "[1]; BA 1 mg/l, sucrose 70 g/m", "result": 1}, {"measurement": "Number of enlarged explants", "setting": "[1]; BA 1 mg/l, sucrose 90 g/m", "result": 5}, {"measurement": "Number of regenerate explants", "setting": "[1]; BA 1 mg/l, sucrose 90 g/m", "result": 1}, {"measurement": "Number of enlarged explants", "setting": "[2]; BA 0.05 mg/l, sucrose 30 g/m", "result": 2}, {"measurement": "Number of regenerate explants", "setting": "[2]; BA 0.05 mg/l, sucrose 30 g/m", "result": 0}, {"measurement": "Number of enlarged explants", "setting": "[2]; BA 0.05 mg/l, sucrose 50 g/m", "result": 1}, {"measurement": "Number of regenerate explants", "setting": "[2]; BA 0.05 mg/l, sucrose 50 g/m", "result": 0}, {"measurement": "Number of enlarged explants", "setting": "[2]; BA 0.05 mg/l, sucrose 70 g/m", "result": 1}, {"measurement": "Number of regenerate explants", "setting": "[2]; BA 0.05 mg/l, sucrose 70 g/m", "result": 0}, {"measurement": "Number of enlarged explants", "setting": "[2]; BA 0.05 mg/l, sucrose 90 g/m", "result": 0}, {"measurement": "Number of regenerate explants", "setting": "[2]; BA 0.05 mg/l, sucrose 90 g/m", "result": 0}, {"measurement": "Number of enlarged explants", "setting": "[2]; BA 0.1 mg/l, sucrose 30 g/m", "result": 4}, {"measurement": "Number of regenerate explants", "setting": "[2]; BA 0.1 mg/l, sucrose 30 g/m", "result": 4}, {"measurement": "Number of enlarged explants", "setting": "[2]; BA 0.1 mg/l, sucrose 50 g/m", "result": 5}, {"measurement": "Number of regenerate explants", "setting": "[2]; BA 0.1 mg/l, sucrose 50 g/m", "result": 1}, {"measurement": "Number of enlarged explants", "setting": "[2]; BA 0.1 mg/l, sucrose 70 g/m", "result": 2}, {"measurement": "Number of regenerate explants", "setting": "[2]; BA 0.1 mg/l, sucrose 70 g/m", "result": 0}, {"measurement": "Number of enlarged explants", "setting": "[2]; BA 0.1 mg/l, sucrose 90 g/m", "result": 1}, {"measurement": "Number of regenerate explants", "setting": "[2]; BA 0.1 mg/l, sucrose 90 g/m", "result": 0}, {"measurement": "Number of enlarged explants", "setting": "[2]; BA 0.5 mg/l, sucrose 30 g/m", "result": 3}, {"measurement": "Number of regenerate explants", "setting": "[2]; BA 0.5 mg/l, sucrose 30 g/m", "result": 1}, {"measurement": "Number of enlarged explants", "setting": "[2]; BA 0.5 mg/l, sucrose 50 g/m", "result": 4}, {"measurement": "Number of regenerate explants", "setting": "[2]; BA 0.5 mg/l, sucrose 50 g/m", "result": 1}, {"measurement": "Number of enlarged explants", "setting": "[2]; BA 0.5 mg/l, sucrose 70 g/m", "result": 1}, {"measurement": "Number of regenerate explants", "setting": "[2]; BA 0.5 mg/l, sucrose 70 g/m", "result": 0}, {"measurement": "Number of enlarged explants", "setting": "[2]; BA 0.5 mg/l, sucrose 90 g/m", "result": 0}, {"measurement": "Number of regenerate explants", "setting": "[2]; BA 0.5 mg/l, sucrose 90 g/m", "result": 0}, {"measurement": "Number of enlarged explants", "setting": "[2]; BA 1 mg/l, sucrose 30 g/m", "result": 1}, {"measurement": "Number of regenerate explants", "setting": "[2]; BA 1 mg/l, sucrose 30 g/m", "result": 0}, {"measurement": "Number of enlarged explants", "setting": "[2]; BA 1 mg/l, sucrose 50 g/m", "result": 1}, {"measurement": "Number of regenerate explants", "setting": "[2]; BA 1 mg/l, sucrose 50 g/m", "result": 10}, {"measurement": "Number of enlarged explants", "setting": "[2]; BA 1 mg/l, sucrose 70 g/m", "result": 0}, {"measurement": "Number of regenerate explants", "setting": "[2]; BA 1 mg/l, sucrose 70 g/m", "result": 0}, {"measurement": "Number of enlarged explants", "setting": "[2]; BA 1 mg/l, sucrose 90 g/m", "result": 0}, {"measurement": "Number of regenerate explants", "setting": "[2]; BA 1 mg/l, sucrose 90 g/m", "result": 0}]}
